Data as given in patent US20180340174A1, “METHOD FOR IDENTIFICATION OF MOLECULES WITH DESIRED CHARACTERISTICS” (NANOCORE APS, priority 2014, published 2018).
Like-named read-outs stand apart in the source and are kept apart here. Where no end group is shown, it is not given here.

Legend:
[1] = Sano et al. 2005; Meyers et al. 2007; cited from earlier work
[2] = Seker et al. 2011; Chen et al. 2006; cited from earlier work
[3] = Matsuno et al. 2008; bound to PLLA (melt crystallization); cited from earlier work
[4] = Matsuno et al. 2008; bound to PMMA (atactic); cited from earlier work
[5] = Matsuno et al. 2008; bound to PLLA (amorphous); cited from earlier work
[6] = Matsuno et al. 2008; bound to PLLA (layer by layer); cited from earlier work
[7] = Matsuno et al. 2008; bound to PDLA; cited from earlier work
[8] = Serizawa et al. 2007; bound to Polystyrene (syndiotactic); cited from earlier work
[9] = Serizawa et al. 2007; bound to Polystyrene (atactic); cited from earlier work
[10] = Selection of polynucleotide-tagged molecules on carbon nanotubes without and with PPyCl repeat units in the medium (Example 15.0.0.0); format: binding
Procedure: In this example library molecules (M) are peptides linked by […] (L) to DNA tags encoding the peptide. […] Identification of carbon nanotube binding molecules is described in Brown et al. (Small. 2008 April; 4 (4):416-20). The CNT target is prepared from single-walled carbon nanotubes (purified HiPCO, Carbon Nanotechnologies Inc., US) used as purchased. Bundles and individual tubes are suspended in dichloroethane by sonication and deposited on pieces of double side polished Si wafers. The CNT mats are inspected by scanning electron microscopy. A uniform, dense coverage on both sides of the 1 cm2 substrates is achieved by repeatedly depositing drops from the suspension, rinsing with isopropanol, and blow drying with nitrogen. Test enrichments are conducted inn a phosphate buffer (PKT). The enrichment for adhesion to CNT mats using solution conditions is done similarly to other searches for CNT binders. The population recovered from a single cycle of enrichment for binding to CNTs in a Tris-HCl buffer (TNT) differed from that obtained in PKT.
Binding molecules, which bind efficiently to a filler (carbon nanotubes) but not to a polymer matrix (PPyCl) of a composite material, are identified essentially as described in example 1.1.1.1. […]

[11] = Serizawa et al. 2007; cited from earlier work
[12] = Seker et al. 2011; cited from earlier work
[13] = Serizawa et al. 2007; bound to PMMA (isotactic); cited from earlier work
[14] = Serizawa et al. 2007; bound to PMMA (syndiotactic); cited from earlier work
[15] = Serizawa et al. 2007; bound to Polystyrene (isotactic); cited from earlier work
[16] = Islam et al. 2012; bound to Ceramic fluorapatite; cited from earlier work
[17] = Islam et al. 2012; bound to Ceramic hydroxyl-apatite; cited from earlier work
[18] = Serizawa et al. 2007; cited from earlier work; remark: listed apart in the source
[19] = Eijima et al. 2010; bound to PPV (hyper-branched); cited from earlier work
[20] = Eijima et al. 2010; bound to PPV (linear); cited from earlier work
[21] = Enrichment of CNT-binding peptide A2 displayed on bacteriophages versus mini-M13, blue/white colony counting
[22] = Li et al. 2013; cited from earlier work
[23] = Wang et al. 2003; cited from earlier work
[24] = Weiger et al. 2010; read-out: KD to HA; cited from earlier work
[25] = biological target: T1, soluble epoxide hydrolase (sEH) (Homo sapiens, UniProt P34913); conditions: Litovchick 2015; cited from earlier work
T1 sequence (P34913 1-555): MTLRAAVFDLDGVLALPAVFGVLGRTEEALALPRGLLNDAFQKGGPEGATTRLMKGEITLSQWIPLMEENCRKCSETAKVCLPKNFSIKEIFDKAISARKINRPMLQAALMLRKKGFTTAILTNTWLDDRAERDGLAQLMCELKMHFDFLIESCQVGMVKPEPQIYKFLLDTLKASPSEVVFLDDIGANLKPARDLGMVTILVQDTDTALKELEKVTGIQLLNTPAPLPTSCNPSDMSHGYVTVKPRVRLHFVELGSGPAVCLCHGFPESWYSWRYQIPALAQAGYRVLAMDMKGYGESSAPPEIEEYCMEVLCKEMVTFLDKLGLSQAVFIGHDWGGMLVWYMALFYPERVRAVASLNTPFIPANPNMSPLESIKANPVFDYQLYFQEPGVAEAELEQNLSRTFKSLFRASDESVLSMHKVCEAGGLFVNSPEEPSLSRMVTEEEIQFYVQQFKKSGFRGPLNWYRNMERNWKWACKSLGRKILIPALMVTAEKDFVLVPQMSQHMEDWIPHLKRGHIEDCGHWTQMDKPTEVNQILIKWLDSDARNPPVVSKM

RKLPDAPGMHTW
Kd [1]: 13 µM

RLNPPSQMDPPF
Kd [2]: 8300 nM

QLMHDYR
Kd [3]: 16 µM
Kd [4]: 180 µM
Kd [5]: 150 µM
Kd [6]: 67 µM
Kd [7]: 21 µM

YLTMPTP
Kd [8]: 5 pM
Kd [9]: 0.022 nM

polynucleotide-tagged THRTSTLDYFVI-pyrene: polynucleotide-tagged peptide-pyrene which can bind to both carbon nanotubes and PPyCl (also: polynucleotide tag, site not given here)
Outcome of selection on carbon nanotubes ([10]; first experiment, medium as in example 1.1.1.1): identified as carbon nanotube binding molecules
Outcome of selection on carbon nanotubes ([10]; second experiment, medium comprises repeat units of PPyCl): removed during the partitioning step

GETQCAA
Kd [8]: 7.4 pM
Kd [9]: 0.034 nM

THLPWQT
Kd [11]: 0.067 nM

CPTSTGQAC
Kd [12]: 280 nM

ELWRPTR
Kd [13]: 3.6 µM
Kd [14]: 150 µM

QTWPPPLWFSTS
Kd [2]: 810 nM

FPGRPSP
Kd [8]: 8.5 pM
Kd [9]: 0.031 nM

RHEPPLA
Kd [8]: 11 pM
Kd [9]: 0.056 nM
Kd [15]: 0.021 nM

KPRSVSG
Kd [16]: 5.4 µM
Kd [17]: 7.2 µM

CHKKPSKSC
Kd [2]: 4.1 nM

GETRAPL
Kd [8]: 6.7 pM
Kd [9]: 0.067 nM
Kd [15]: 0.036 nM

HTAQSTA
Kd [8]: 10 pM
Kd [9]: 0.014 nM

HKPDANR
Kd [18]: 0.025 nM

ELWSIDTSAHRK
Kd [19]: 27 µM
Kd [20]: 13 µM

IFRLSWGTYFS [A2]
Enrichment fold ([21]; 1 wash, CNT 0.02 mg/ml, 1.1E+9 bacteriophages): 100 fold
Enrichment fold ([21]; 3 washes, CNT 0.02 mg/ml, 1.1E+9 bacteriophages): 85 fold
Enrichment fold ([21]; 10 washes, CNT 0.02 mg/ml, 1.1E+9 bacteriophages): 91 fold
Enrichment fold ([21]; one wash, CNT 0.02 mg/ml, 1.1E+11 bacteriophages): 2 fold
Enrichment fold ([21]; one wash, CNT 0.2 mg/ml, 1.1E+9 bacteriophages): 23 fold
Enrichment fold ([21]; one wash, CNT 0.2 mg/ml, 1.1E+11 bacteriophages): 7 fold
Enrichment fold ([21]; one wash, CNT 2 mg/ml, 1.1E+9 bacteriophages): 4 fold
Enrichment fold ([21]; one wash, CNT 2 mg/ml, 1.1E+11 bacteriophages): 10 fold
Enrichment fold ([21]; ten washes with 1 min. sonication at 35 kHz and 160 W during washing, CNT 0.2 mg/ml, 1.1E+11 bacteriophages): 15 fold
Enrichment fold ([21]; ten washes, CNT 0.02 mg/ml, 1.1E+11 bacteriophages): 8 fold
Enrichment fold ([21]; ten washes, CNT 0.2 mg/ml, 1.1E+9 bacteriophages): 17 fold
Enrichment fold ([21]; ten washes, CNT 0.2 mg/ml, 1.1E+11 bacteriophages): 19 fold
Enrichment fold ([21]; ten washes, CNT 2 mg/ml, 1.1E+9 bacteriophages): 2 fold
Enrichment fold ([21]; ten washes, CNT 2 mg/ml, 1.1E+11 bacteriophages): 3 fold
Enrichment fold ([21]; three washes with 1 min. sonication at 35 kHz and 160 W during washing, CNT 0.2 mg/ml, 1.1E+11 bacteriophages): 17 fold
Enrichment fold ([21]; three washes, CNT 0.02 mg/ml, 1.1E+11 bacteriophages): 16 fold
Enrichment fold ([21]; three washes, CNT 0.2 mg/ml, 1.1E+9 bacteriophages): 16 fold
Enrichment fold ([21]; three washes, CNT 0.2 mg/ml, 1.1E+11 bacteriophages): 16 fold
Enrichment fold ([21]; three washes, CNT 2 mg/ml, 1.1E+9 bacteriophages): 2 fold
Enrichment fold ([21]; three washes, CNT 2 mg/ml, 1.1E+11 bacteriophages): 4 fold
Kd [22]: 20 µM

HWKHPWGAWDTL
Kd [23]: 50 µM

FPGHSGP
Kd [11]: 0.1 nM

SVSVGMKPSPRPGGGK
Kd [24]: 14.1 µM

HLESTPG
Kd [8]: 7.9 pM
Kd [9]: 0.1 nM
Kd [15]: 0.065 nM

SCSDCLKSVDFIPSSLASS
Kd [1]: 0.25 µM

CN(CCn1cccn1)C(=O)c1ccc(-c2cccc(C(=O)NC3CCCCC3)c2)nc1 [compound 12]
enrichment over two affinity-mediated selection steps compared to the average within the naïve library [25]: approximately 30,000 fold

FSWEAFA
Kd [8]: 6.1 pM
Kd [9]: 0.085 nM
Kd [15]: 0.034 nM

CTLHVSSYC
Kd [12]: 1100 nM

HTDWRLGTWHETS
Kd [19]: 1.3 µM
Kd [20]: 19 µM
